The structures appear in SMILES notation. Converted amounts (≈) assume the structure as drawn.

One assay relates to S. aureus COLnex. The assay is described as follows: MIC testing, strain COLnex. Type of assay: cell-based. The settings on record: Staphylococcus aureus, read-out: Minimum inhibitory concentration. The method, then:
(§1) To further evaluate their potential PBP4 inhibitor activity, prioritized compounds were tested for their ability to reverse PBP4 mediated antibiotic resistance in another S. aureus background using three isogenic strains that became available during our study (generous gift from Dr. S. Chatterjee; University of Maryland). These strains included: (1) COLnex, which is a methicillin susceptible strain, (2) CRB, a methicillin/ceftobiprole-resistant strain of COLnex that overproduces PBP4, and (3) CRB∆pbp4, a methicillin susceptible strain of CRB lacking the pbp4 gene.
(§2) S. aureus strain USA300 is a predominant cause of U.S. community-associated MRSA infections, whereas strain COL is a commonly studied hospital-associated MRSA strain. The S. aureus USA300 pbp4-null strain (USA300Δpbp4) and PBP4 complementation strain (USA300∆pbp4 pPBP4) have been previously described. Strain COLn is a laboratory derived tetracycline susceptible derivative of COL, whereas COLnex is a methicillin susceptible COLn derivative that has been cured of SCCmec thereby removing the mecA, which encodes PBP2a, and has been previously described. Strain CRB is a well-studied MRSA COLnex derivative that contains two amino acid substitutions (E183A and F241R) near the PBP4 active site and a 36-bp duplication 290-bp upstream of the pbp4 open reading frame leading to 20–40-fold overexpression of the gene. All strains were grown in Mueller Hinton (MH) broth at 37 °C, as indicated. Penicillin, streptomycin, ciprofloxacin, mupirocin, meropenem, and mitomycin C were purchased from Fisher Scientific (Waltham, MA, USA), whereas ceftobiprole was obtained from MedChemExpress LLC (Monmouth Junction, NJ, USA). The 30,000-member […]-EXP small molecule chemical library (Blocks 3–5) used in these studies was purchased from ChemBridge Corporation (San Diego, CA, USA).

The next assay deals with S. aureus strain CRB. The assay can be described thus: Fractional inhibitory concentration checkerboard, ceftobiprole + putative PBP4 inhibitor, strain CRB. The conditions noted are these: Staphylococcus aureus, read-out: CRB Alone BPR (ceftobiprole MIC alone). In kind it is cell-based, Staphylococcus aureus. The method, then: (§3) Fractional inhibitory testing was performed in checkerboard format to determine whether putative PBP4 inhibitors potentiated the antimicrobial effects of β-lactams toward S. aureus strains USA300 and CRB, as previously described. To do so, in triplicate 10^5 CFU of each strain (10 µL) was added to individual wells of a microtiter plate containing 90 µL MH media. […] Plates were incubated at 37 °C for 16–20 h and the lowest concentration of each test agent that inhibited bacterial growth alone or in combination was determined by the naked eye. The fractional inhibitory concentration (FIC) index was calculated using the formula: FIC of A (MIC of drug A in combination/MIC of drug A alone) + FIC B ([…]/MIC of drug B alone). A synergistic interaction was defined as a FICI value of less than 0.5, an additive interaction was defined as a FICI value between 0.5 and 1.0, an indifferent interaction was defined as a FICI value between 1.0 and 4.0, and an antagonistic interaction was defined as a FICI value of more than 4.0 [46].

Another assay deals with S. aureus USA300. The assay can be described thus: Minimum inhibitory concentration (MIC) testing, strain USA300. Type of assay: cell-based, Staphylococcus aureus. The conditions noted are these: for MIC: Staphylococcus aureus, USA300, read-out: Minimum inhibitory concentration; for Fold increase in resistance provided by PBP4: USA300 versus USA300∆pbp4 MIC; for Minimum inhibitory concentration: strain USA300. The method, then: (§4) The approach used was to initially search for compounds that reverse the antibiotic resistance profile of wild type cells to that of a pbp4 mutant. To define screening conditions three strains were employed, a wild type USA300 MRSA strain, an isogenic pbp4 deletion strain, and a complemented strain harboring a plasmid wildtype pbp4 copy. The antibiotic susceptibility profile of each strain was measured to determine the magnitude with which PBP4 affects resistance to various antibiotics (Table 1). […]. We anticipated that the greater dynamic range of the latter could provide a means to reliably screen for agents that inhibit PBP4 function. […].
as §2

In another assay the test system is S. aureus CRB. The assay can be described thus: MIC testing, strain CRB (PBP4 overproducer). The settings on record: for MIC: Staphylococcus aureus, read-out: Minimum inhibitory concentration, strain CRB. In kind it is cell-based, Staphylococcus aureus. As for the experimental part: as §1, §2
A further assay relates to S. aureus USA300∆pbp4. The assay can be described thus: MIC testing, strain USA300∆pbp4. Type of assay: cell-based, Staphylococcus aureus. The settings on record: Staphylococcus aureus, USA300, read-out: Minimum inhibitory concentration. The method, then: as §4, §2
A further assay deals with S. aureus CRB∆pbp4. The assay can be described thus: MIC testing, strain CRB∆pbp4. In kind it is cell-based. The settings on record: Staphylococcus aureus, read-out: Minimum inhibitory concentration. As for the experimental part: as §1, §2
The subject of assay [1] is S. aureus strain CRB∆pbp4. The assay is described as follows: Fractional inhibitory concentration checkerboard, ceftobiprole + putative PBP4 inhibitor, strain CRB∆pbp4. Type of assay: cell-based, Staphylococcus aureus. The conditions noted are these: Staphylococcus aureus, read-out: CRB∆pbp4 Alone BPR (ceftobiprole MIC alone).
The next assay concerns S. aureus strain USA300. The assay is described as follows: microbe, parasite or virus in culture. In kind it is cell-based. The settings on record: Staphylococcus aureus, USA300, read-out: Ceftobiprole resistance (MIC) without compound. The method, then: as §3
The test system of assay [2] is S. aureus USA300∆pbp4 pPBP4. The assay is described as follows: microbe, parasite or virus in culture. In kind it is cell-based. The conditions noted are these: Staphylococcus aureus, USA300, read-out: Minimum inhibitory concentration.

Take `Nc1nc(/C(=N/O)C(=O)N[C@@H]2C(=O)N3C(C(=O)O)=C(/C=C4\CCN([C@@H]5CCNC5)C4=O)CS[C@H]23)ns1` [BPR, ceftobiprole]: the MIC with S. aureus COLnex is 0.25 µg/mL (≈ 0.468 µM); in the assay with S. aureus strain CRB, 128 µg/mL; with S. aureus USA300, 0.5 µg/mL (≈ 0.935 µM); in the assay with S. aureus CRB, 128 µg/mL (≈ 239 µM); in the assay with S. aureus USA300∆pbp4 it was 0.25 µg/mL (≈ 0.468 µM); with S. aureus CRB∆pbp4 it was 0.25 µg/mL (≈ 0.468 µM). In addition, the values for the MIC (in assay [1]; in the assay with S. aureus strain USA300; in assay [2]) were 0.25 µg/mL, 1 µg/mL and 0.5 µg/mL (≈ 0.935 µM), respectively. Moreover, the “Fold difference in ceftobiprole resistance” value with S. aureus CRB (PBP4-overexpressor CRB versus CRB∆pbp4) was 512 fold.
`CCOc1ccc2ccccc2c1C(=O)N[C@@H]1C(=O)N2[C@@H]1SC(C)(C)[C@@H]2C(=O)O` [NAF, nafcillin]: the MIC with S. aureus COLnex is 0.25 µg/mL (≈ 0.603 µM); in the assay with S. aureus USA300, 8 µg/mL (≈ 19.3 µM); in the assay on S. aureus CRB it was > 128 µg/mL; in the assay with S. aureus USA300∆pbp4, 4 µg/mL (≈ 9.65 µM); in the assay with S. aureus CRB∆pbp4 it was 0.25 µg/mL (≈ 0.603 µM); in assay [2], 8 µg/mL (≈ 19.3 µM). Also, in the assay with S. aureus USA300, the “Fold increase in resistance provided by PBP4” value is 2 fold. In the assay on S. aureus USA300, the Minimum inhibitory concentration came to 8 µg/mL (≈ 19.3 µM).
`C[C@H]1COc2c(N3CCN(C)CC3)c(F)cc3c(=O)c(C(=O)O)cn1c23` [LEV, levofloxacin]: the MIC in the assay with S. aureus COLnex is 0.25 µg/mL (≈ 0.692 µM); in the assay on S. aureus USA300, 1 µg/mL (≈ 2.77 µM); with S. aureus CRB, 0.5 µg/mL (≈ 1.38 µM); in the assay on S. aureus USA300∆pbp4, 0.5 µg/mL (≈ 1.38 µM); in the assay with S. aureus CRB∆pbp4, 0.25 µg/mL (≈ 0.692 µM); in assay [2], 1 µg/mL (≈ 2.77 µM).
Regarding `C[C@@H](O)[C@H]1C(=O)N2C(C(=O)O)=C(S[C@@H]3CN[C@H](C(=O)N(C)C)C3)[C@H](C)[C@H]12` [MER, meropenem], the MIC in the assay on S. aureus COLnex worked out at 1 µg/mL (≈ 2.61 µM); with S. aureus USA300, 4 µg/mL (≈ 10.4 µM); in the assay on S. aureus CRB, 64 µg/mL (≈ 167 µM); in the assay on S. aureus USA300∆pbp4, 2 µg/mL (≈ 5.22 µM); with S. aureus CRB∆pbp4, 1 µg/mL (≈ 2.61 µM); in [2] it was 4 µg/mL (≈ 10.4 µM). For the same molecule, the “Fold increase in resistance provided by PBP4” value in the assay on S. aureus USA300 turned out to be 2 fold. This molecule gave a Minimum inhibitory concentration in the assay with S. aureus USA300 of 4 µg/mL (≈ 10.4 µM).

The record behind these values is publication PMC9598407, “Identification of Staphylococcus aureus Penicillin Binding Protein 4 (PBP4) Inhibitors” (Antibiotics, 2022).
